Measurements published in paper PMC7031696 (Cell chemical biology, 2019).
Read-outs that look alike come from different tables or passages of the source.

How the values were obtained:
[1] = system: Plasmodium falciparum 3D7-A10 parasites; assay: Stage specificity assay (8-h exposure of synchronized stages, IC50^8h); assay type: cell-based; conditions: for IC50: Plasmodium falciparum
[2] = system: asynchronous 3D7-A10 parasite cultures; assay: Standard 72-h exposure asexual blood stage susceptibility assay (IC50^72h); assay type: cell-based, Plasmodium falciparum; conditions: Plasmodium falciparum, 3D7, 72 h, read-out: Overall (72hr assay) Mean IC50 (IC50^72h)
[3] = system: 3D7-MR4 trophozoite parasite-infected RBCs; assay: Metabolomic profiling (hydrophilic metabolite changes, UHPLC-MS); assay type: cell-based, Plasmodium falciparum
[4] = system: 3D7-A10 or Dd2-B2 parasites; conditions: 3 × IC50^72h drug concentrations; ref Phillips et al., 2015; cited from earlier work

O=C1C(O)=C([C@H]2CC[C@H](c3ccc(Cl)cc3)CC2)C(=O)c2ccccc21 [Atovaquone, reference compound]
overall activity profile (stages on which active) ([1]; 8-h exposures): activity against late trophozoites only | killing in stage specificity assay ([1]; 8-h exposures, survival curves): incomplete killing | IC50 ([1]; 3D7, read-out: Early rings Mean IC50, shift 2): 553 nM | IC50 ([1]; 3D7, read-out: Early trophozoites Mean IC50, shift 1): 0.68 nM | IC50 ([1]; 3D7, read-out: Early trophozoites Mean IC50, shift 2): 619 nM | IC50 ([1]; 3D7, read-out: Late rings Mean IC50, shift 2): 324 nM | IC50 ([1]; 3D7, read-out: Late trophozoites Mean IC50, shift 1): 3.7 nM | IC50 ([1]; 3D7, read-out: Schizonts IC50, shift 2): > 25000 nM | IC50 ([1]; 3D7, read-out: Schizonts Mean IC50, shift 1): 7.4 nM | shape of survival curve ([1]; early trophozoite and schizont stages): biphasic survival curve | Stage of peak activity (Figure 6) ([1]; period when the parasite was most susceptible (lowest IC50^8h)): late trophozoite stages | Peak Activity (Table S1) ([1]; stage(s) with the lowest IC50^8h): Late Trophs | IC50 [2]: 1.1 nM | Log2(fold change) Myristoyl/tetradecanoyl-CoA [3]: -0.0411 | Log2(fold change) Octoluse 8/1P [3]: 0.0910 | Log2(fold change) succinate/Methylmalonic acid [3]: -0.8517 | Log2(fold change) succinyl-CoA/methylmalonyl-CoA [3]: -0.2938 | Log2(fold change) threonine/homoserine [3]: 0.0177 | metabolic signature: increases in the pyrimidine precursors dihydroorotate and N-carbamoyl-L-aspartate (mETC disruption) ([3]; 10 × IC50^72h, 2.5 hr, trophozoites): observed | Log2(fold changes) 3-phosphoglycerate ([3]; metabolite 3-phosphoglycerate, log2 fold change): -0.1329 | Log2(fold changes) 4-Pyridoxic acid ([3]; metabolite 4-Pyridoxic acid, log2 fold change): 0.0014 | Log2(fold changes) 4-aminobutyrate ([3]; metabolite 4-aminobutyrate, log2 fold change): 0.1923 | Log2(fold changes) 4-phosphopantetheine ([3]; metabolite 4-phosphopantetheine, log2 fold change): 0.0048 | Log2(fold changes) 4-phosphopantothenate ([3]; metabolite 4-phosphopantothenate, log2 fold change): -0.3512 | Log2(fold changes) 5-aminopentanoic acid ([3]; metabolite 5-aminopentanoic acid, log2 fold change): -0.0149 | Log2(fold changes) 5-methyl-THF ([3]; metabolite 5-methyl-THF, log2 fold change): -0.0146 | Log2(fold changes) 5-phosphoribosyl-1-pyrophosphate ([3]; metabolite 5-phosphoribosyl-1-pyrophosphate, log2 fold change): -0.1198 | Log2(fold changes) 6-phospho-D-gluconate ([3]; metabolite 6-phospho-D-gluconate, log2 fold change): 0.0051 | Log2(fold change) HVDD ([3]; metabolite HVDD): 0.0262 | Log2(fold change) Hydroxyisocaproic acid ([3]; metabolite Hydroxyisocaproic acid): -0.0150 | Log2(fold change) IDP ([3]; metabolite IDP): 0.0185 | Log2(fold change) IMP ([3]; metabolite IMP): 0.1599 | Log2(fold change) Inositol ([3]; metabolite Inositol): 0.0000 | Log2(fold change) Isopentyl-PP ([3]; metabolite Isopentyl-PP): -0.0191 | Log2(fold change) L-arginino-succinate ([3]; metabolite L-arginino-succinate): 0.1909 | Log2(fold change) LD ([3]; metabolite LD): 0.1960 | Log2(fold change) N-Acetyl-L-alanine ([3]; metabolite N-Acetyl-L-alanine): -0.3227 | Log2(fold change) N-acetyl-L-ornithine ([3]; metabolite N-acetyl-L-ornithine): 0.1921 | Log2(fold change) N-acetyl-glucosamine-1/6-phosphate ([3]; metabolite N-acetyl-glucosamine-1/6-phosphate): 0.3531 | Log2(fold change) N-acetyl-glutamate ([3]; metabolite N-acetyl-glutamate): 0.0422 | Log2(fold change) N-acetyl-glutamine ([3]; metabolite N-acetyl-glutamine): -0.1228 | Log2(fold change) N-carbamoyl-L-aspartate ([3]; metabolite N-carbamoyl-L-aspartate): 2.7565 | Log2(fold change) NAD+ ([3]; metabolite NAD+): -0.0365 | Log2(fold change) NADH ([3]; metabolite NADH): -0.0409 | Log2(fold change) NADP+ ([3]; metabolite NADP+): 0.1141 | Log2(fold change) NADPH ([3]; metabolite NADPH): -0.0085 | Log2(fold change) O-acetyl-L-serine ([3]; metabolite O-acetyl-L-serine): 0.0000 | Log2(fold change) Octoluse Bisphosphate ([3]; metabolite Octoluse Bisphosphate): -0.0867 | Log2(fold change) PD ([3]; metabolite PD): 0.2066 | Log2(fold change) PE ([3]; metabolite PE): 0.2833 | Log2(fold change) PEE ([3]; metabolite PEE): 0.1525 | Log2(fold change) PEEK ([3]; metabolite PEEK): 0.2544 | Log2(fold change) PVNF ([3]; metabolite PVNF): -0.1256 | Log2(fold change) Pyroglutamic acid ([3]; metabolite Pyroglutamic acid): -0.4514 | Log2(fold change) Pyrophosphate ([3]; metabolite Pyrophosphate): -0.0311 | Log2(fold change) Ribose-5-phosphate ([3]; metabolite Ribose-5-phosphate): -0.0776 | Log2(fold change) S-adenosyl-L-homocysteine ([3]; metabolite S-adenosyl-L-homocysteine): -0.0546 | Log2(fold change) S-adenosyl-L-methioninamine ([3]; metabolite S-adenosyl-L-methioninamine): 0.0342 | Log2(fold change) S-adenosyl-L-methionine ([3]; metabolite S-adenosyl-L-methionine): 0.0000 | Log2(fold change) S-methyl-5'-thioadenosine ([3]; metabolite S-methyl-5'-thioadenosine): 0.1207 | Log2(fold change) SD ([3]; metabolite SD): 0.1611 | Log2(fold change) SDL ([3]; metabolite SDL): 0.0455 | Log2(fold change) SID ([3]; metabolite SID): 0.0448 | Log2(fold change) Sedoheptulose bisphosphate ([3]; metabolite Sedoheptulose bisphosphate): -0.0991 | Log2(fold change) Thiamine pyrophosphate ([3]; metabolite Thiamine pyrophosphate): 0.0203 | Log2(fold changes) UDP-D-glucose ([3]; metabolite UDP-D-glucose, log2 fold change): 0.0102 | Log2(fold changes) UDP-D-glucuronate ([3]; metabolite UDP-D-glucuronate, log2 fold change): -0.0044 | Log2(fold changes) UDP-N-acetyl-glucosamine ([3]; metabolite UDP-N-acetyl-glucosamine, log2 fold change): -0.2854 | Log2(fold changes) UDP ([3]; metabolite UDP, log2 fold change): -1.0636 | Log2(fold changes) UMP ([3]; metabolite UMP, log2 fold change): -0.5975 | Log2(fold changes) UTP ([3]; metabolite UTP, log2 fold change): -1.2395 | Log2(fold change) hydroxyphenylpyruvate ([3]; metabolite hydroxyphenylpyruvate): 0.0147 | Log2(fold change) hydroxyproline/Aminolevulinate ([3]; metabolite hydroxyproline/Aminolevulinate): -0.0689 | Log2(fold change) hypoxanthine ([3]; metabolite hypoxanthine): -0.2575 | Log2(fold change) indole ([3]; metabolite indole): -0.1736 | Log2(fold change) inosine ([3]; metabolite inosine): -0.1123 | Log2(fold change) isoleucine ([3]; metabolite isoleucine): -0.2949 | Log2(fold change) lactate ([3]; metabolite lactate): -0.5142 | Log2(fold change) leucine ([3]; metabolite leucine): -0.2842 | Log2(fold change) lysine ([3]; metabolite lysine): 0.3188 | Log2(fold change) malate ([3]; metabolite malate): -0.2336 | Log2(fold change) maleic acid ([3]; metabolite maleic acid): -0.1204 | Log2(fold change) methionine ([3]; metabolite methionine): -0.2848 | Log2(fold change) myo-inositol ([3]; metabolite myo-inositol): -0.2098 | Log2(fold change) nicotinamide mononucleotide ([3]; metabolite nicotinamide mononucleotide): -0.0768 | Log2(fold change) nicotinate ([3]; metabolite nicotinate): -0.1572 | Log2(fold change) ornithine ([3]; metabolite ornithine): 0.0045 | Log2(fold change) orotate ([3]; metabolite orotate): 0.1233 | Log2(fold change) orotidine-5'-phosphate ([3]; metabolite orotidine-5'-phosphate): -0.3697 | Log2(fold change) oxaloacetate ([3]; metabolite oxaloacetate): -0.0126 | Log2(fold change) p-aminobenzoate ([3]; metabolite p-aminobenzoate): -0.0050 | Log2(fold change) p-hydroxybenzoate ([3]; metabolite p-hydroxybenzoate): 0.0562 | Log2(fold change) pantothenate ([3]; metabolite pantothenate): -0.2044 | Log2(fold change) phenylalanine ([3]; metabolite phenylalanine): -0.3684 | Log2(fold change) phenylpyruvate ([3]; metabolite phenylpyruvate): 0.0000 | Log2(fold change) phosphoenolpyruvate ([3]; metabolite phosphoenolpyruvate): -0.0614 | Log2(fold change) prephenate ([3]; metabolite prephenate): -0.0378 | Log2(fold change) proline ([3]; metabolite proline): -0.1933 | Log2(fold change) pyridoxine ([3]; metabolite pyridoxine): -0.3758 | Log2(fold change) pyruvate ([3]; metabolite pyruvate): -0.8812 | Log2(fold change) riboflavin ([3]; metabolite riboflavin): -0.0986 | Log2(fold change) ribose ([3]; metabolite ribose): -0.0745 | Log2(fold change) ribose-phosphate ([3]; metabolite ribose-phosphate): -0.1162 | Log2(fold change) ribulose-5-phosphate ([3]; metabolite ribulose-5-phosphate): -0.1031 | Log2(fold change) serine ([3]; metabolite serine): 0.0478 | Log2(fold change) sn-glycerol-3-phosphate ([3]; metabolite sn-glycerol-3-phosphate): 0.1848 | Log2(fold change) taurine ([3]; metabolite taurine): 0.0315 | Log2(fold change) thiamine ([3]; metabolite thiamine): -0.0450 | Log2(fold change) thymidine ([3]; metabolite thymidine): -0.1873 | Log2(fold changes) thymine ([3]; metabolite thymine, log2 fold change): 0.0000 | Log2(fold changes) trehalose-6-Phosphate ([3]; metabolite trehalose-6-Phosphate, log2 fold change): 0.0905 | Log2(fold changes) tryptophan ([3]; metabolite tryptophan, log2 fold change): -0.2480 | Log2(fold changes) tyrosine ([3]; metabolite tyrosine, log2 fold change): -0.2052 | Log2(fold changes) uridine ([3]; metabolite uridine, log2 fold change): -0.2906 | minimum inoculum for resistance [4]: 2 × 10^7 parasites
